# Experiments:
# [1] = tested on: carrageenan-induced foot edema; assay: Rat Carrageenan Foot Pad Edema Test; format: in vivo, Male Sprague-Dawley rats; settings: oral, 3 h after carrageenan injection
# Procedure: Rat Carrageenan Foot Pad Edema Test
# The carrageenan foot edema test was performed with materials, reagents and procedures essentially as described by Winter, et al. (Proc. Soc. Exp. Biol. Med., 11, 544 (1962)). Male Sprague-Dawley rats were selected in each group so that the average body weight was as close as possible. Rats were fasted with free access to water for over sixteen hours prior to the test. The rats were dosed orally (1 mL) with compounds suspended in vehicle containing 0.5% methylcellulose and 0.025% surfactant, or with vehicle alone. One hour later a subplantar injection of 0.1 mL of 1% solution of carrageenan/sterile 0.9% saline was administered and the volume of the injected foot was measured with a displacement plethysmometer connected to a pressure transducer with a digital indicator. Three hours after the injection of the carrageenan, the volume of the foot was again measured. The average foot swelling in a group of drug-treated animals was compared with that of a group of placebo-treated animals and the percentage inhibition of edema was determined (Ottertess and Bliven, Laboratory Models for Testing NSAIDs, in Non-steroidal Anti-inflammatory Drugs, (J. Lombardino, ed. 1985)).
# [2] = tested on: carrageenan-induced hyperalgesic foot withdrawal; assay: Rat Carrageenan-induced Analgesia Test; format: in vivo, Male Sprague-Dawley rats; settings: oral, inhibition of hyperalgesic foot withdrawal 3 h after carrageenan
# Procedure: Rat Carrageenan-induced Analgesia Test
# The rat carrageenan analgesia test was performed with materials, reagents and procedures essentially as described by Hargreaves, et al. (Pain, 32, 77 (1988)). Male Sprague-Dawley rats were treated as previously described for the Carrageenan Foot Pad Edema test. Three hours after the injection of the carrageenan, the rats were placed in a special plexiglass container with a transparent floor having a high intensity lamp as a radiant heat source, positionable under the floor. After an initial twenty minute period, thermal stimulation was begun on either the injected foot or on the contralateral uninjected foot. A photoelectric cell turned off the lamp and timer when light was interrupted by paw withdrawal. The time until the rat withdraws its foot was then measured. The withdrawal latency in seconds was determined for the control and drug-treated groups, and percent inhibition of the hyperalgesic foot withdrawal determined.
# COX I = settings: read-out: COX I ID50; arachidonic acid 10 μM; pH 8.0; pre-incubated 10-20 minutes
# Procedure: Recombinant baculoviruses were isolated by transfecting 4 μg of baculovirus transfer vector DNA into SF9 insect cells ([…]) along with 200 ng of linearized baculovirus plasmid DNA by the calcium phosphate method. […] Exp. Station Bull. 1555 (1987). Recombinant viruses were purified by three rounds of plaque purification and high titer (10E7-10E8 pfu/ml) stocks of virus were prepared. For large scale production, SF9 insect cells were infected in 10 liter fermentors (0.5×10^6 /ml) with the recombinant baculovirus stock such that the multiplicity of infection was 0.1. After 72 hours the cells were centrifuged and the cell pellet homogenized in Tris/Sucrose (50 mM: 25%, pH 8.0) containing 1% 3-[(3-cholamidopropyl)dimethylammonio]-1-propanesulfonate (CHAPS). The homogenate was centrifuged at 10,000×G for 30 minutes, and the resultant supernatant was stored at -80° C. before being assayed for COX activity.
# COX activity was assayed as PGE2 formed/μg protein/time using an ELISA to detect the prostaglandin released. CHAPS-solubilized insect cell membranes containing the appropriate COX enzyme were incubated in a potassium phosphate buffer (50 mM, pH 8.0) containing epinephrine, phenol, and heme with the addition of arachidonic acid (10 μM). […] The PGE2 formed was measured by standard ELISA technology (Cayman Chemical).
# cyclooxygenase II = settings: literature: Meade et al; Futaki et al; cited from earlier work
# [3] = literature: Futaki et al; cited from earlier work
SMILES,RAT PAW EDEMA % Inhibition @ 30 mg/kg body weight [1],ANALGESIA % Inhibition @ 10 mg/kg body weight [2],IC50 (COX I),inhibition of COX II enzyme (cyclooxygenase II),gastric side effects [3]
"CS(=O)(=O)c1ccc(C2=CC3(C=C2c2ccc(F)cc2)CC3)cc1 [Example 1, 5-(4-Fluorophenyl)-6-[4-(methylsulfonyl)phenyl]spiro[2.4]hepta-4,6-diene]",49%,94%,1300 nM,–,–
COc1ccc2cc(CC(=O)O)ccc2c1 [6-methoxy-2-napthylacetic acid],–,–,–,selectively inhibit the COX II enzyme,–
CS(=O)(=O)Nc1ccc([N+](=O)[O-])cc1OC1CCCCC1 [N-(2-cyclohexyloxy-4-nitrophenyl)methanesulfonamide],–,–,–,inhibits cyclooxygenase II,lacks gastric side effects

# From US5670510A, “Pyridyl substituted spirodienes for the treatment of inflammation” (G. D. Searle & Co., priority 1996, dated 1997)
